# Measurements: patent US20220054465A1, “(PYRIDIN-2-YL)AMINE DERIVATIVES AS TGF-BETA R1 (ALK5) INHIBITORS FOR THE TREATMENT OF CANCER” (Nexys Therapeutics, Inc., priority 2018, published 2022)
# System: HEK-Blue TGFβ cell
# Assay: HEK-Blue TGFβ cellular reporter gene assay (SEAP readout)
# Type: cell-based
# Settings: HEK-Blue TGFβ cells stimulated with TGF-β, 22-23 h incubation, SEAP read at 630 nm
# Description: HEK-Blue TGFβ Cellular Reporter Gene Assay:
# HEK-Blue TGFβ cell was purchased from Invivogen. Cell suspension of 2.5×10^5 cells/ml was prepared using Test Medium (DMEM containing 0.5% v/v heat-inactivated FBS). TGF-β working solution (6 ng/ml) was obtained through diluting TGF-β stock solution (10 μg/ml) by Test Medium before use. Eight different concentrations of all compounds were obtained by 3× gradient dilution method using TGF-β working solution. Add 100 μl of Test Medium (Vehicle) or test article or TGF-β working solution per well of a flat-bottom 96-well plate. Add 100 μl of HEK-Blue TGF-β cell suspension per well. Incubate the plate at 37° C. in a CO2 incubator for 22-23 h. Add 150 μl of resuspended QUANTI-Blue per well of a new flat-bottom 96-well plate. Add 30 μl of induced HEK-Blue TGF-β cells supernatant. Avoid pipetting at the bottom of wells. Incubate the plate at 37° C. incubator for 30-40 min. Determine secreted embryonic alkaline phosphatase (SEAP) levels using a spectrophotometer at 630 nm.
# The inhibition was calculated using the equation: […]
row,SMILES,IC50 [nM]
1,CC(C)(C(=O)O)c1cccc(Nc2cc(Oc3cn(C4CC4)nc3-c3ccccn3)ccn2)c1 [Example 130],> 10000
2,"Cc1ccc(Oc2ccnc(Nc3cccc(C(F)(F)C(=O)O)c3)c2)c(-c2ccccc2)n1 [Example 131, 2,2-difluoro-2-(3-((4-((6-methyl-2-phenylpyridin-3-yl)oxy)pyridin-2-yl)amino)phenyl)acetic acid]",1730
3,"O=C(O)C(F)(F)c1cccc(Nc2cc(Oc3cn(C4CC4)nc3-c3ccccc3)ccn2)c1 [Example 132, 2-(3-((4-((1-cyclopropyl-3-phenyl-1H-pyrazol-4-yl)oxy)pyridin-2-yl)amino)phenyl)-2,2-difluoroacetic acid]",> 10000
4,"CCc1ccc(Oc2ccnc(Nc3cccc(CC(C)(C)C(=O)O)c3)c2)c(C)n1 [Example 133, 3-(3-((4-((6-ethyl-2-methylpyridin-3-yl)oxy)pyridin-2-yl)amino)phenyl)-2,2-dimethylpropanoic acid]",28
5,Cc1cc(Nc2cc(Oc3cc(C)c(C)nc3-c3ccccn3)ccn2)cc(C(C)(C)C(=O)O)c1 [Example 134],78
6,Cc1ccc(Nc2cc(Oc3cc(C)c(C)nc3-c3ccccn3)ccn2)cc1C(C)(C)C(=O)O [Example 136],100
7,Cc1cc(Oc2ccnc(Nc3cccc(CC(C)(C)C(=O)O)c3)c2)c(-c2ccccn2)nc1C [Example 137],71
8,CCc1ccc(Oc2ccnc(Nc3cccc(CCC(=O)O)c3)c2)c(-c2ccccn2)n1 [Example 138],49
9,CCc1nc(-c2ccccn2)c(Oc2ccnc(Nc3cccc(CCC(=O)O)c3)c2)cc1C [Example 139],42
10,Cc1ccc(Oc2ccnc(Nc3cccc(CC(C)(C)C(=O)O)c3)c2)c(-c2ccccc2)n1 [Example 140],35
11,Cc1cc(CC(C)(C)C(=O)O)cc(Nc2cc(Oc3ccc(C)nc3-c3ccccc3)ccn2)c1 [Example 141],12
12,Cc1cc(Nc2cc(Oc3ccc(C)nc3-c3ccccc3)ccn2)cc(C(C)(C)C(=O)O)c1 [Example 142],7
13,Cc1cc(Nc2cc(Oc3cc(C)c(C)nc3C3CCOCC3)ccn2)cc(C(C)(C)C(=O)O)c1 [Example 143],130
14,CCc1ccc(Oc2ccnc(Nc3cc(C)cc(C(C)(C)C(=O)O)c3)c2)c(C)n1 [Example 144],75
15,CCc1ccc(Oc2ccnc(Nc3cc(C)cc(CC(C)(C)C(=O)O)c3)c2)c(C)n1 [Example 145],33
16,CCc1ccc(Oc2ccnc(Nc3cccc(CCC(=O)O)c3)c2)c(C)n1 [Example 146],21
17,CCc1ccc(Oc2ccnc(Nc3cc(C)cc(CCC(=O)O)c3)c2)c(C)n1 [Example 147],25
18,CCc1nc(C)c(Oc2ccnc(Nc3cc(C)cc(C(C)(C)C(=O)O)c3)c2)cc1C [Example 148],34
19,CCc1nc(C)c(Oc2ccnc(Nc3cccc(CCC(=O)O)c3)c2)cc1C [Example 149],21
20,CCc1nc(C)c(Oc2ccnc(Nc3cc(C)cc(CCC(=O)O)c3)c2)cc1C [Example 150],27
21,CCc1nc(C)c(Oc2ccnc(Nc3cccc(CC(C)(C)C(=O)O)c3)c2)cc1C [Example 151],30
22,CCc1nc(C)c(Oc2ccnc(Nc3cc(C)cc(CC(C)(C)C(=O)O)c3)c2)cc1C [Example 152],20
23,CCc1nc(C)c(Oc2ccnc(Nc3cc(C)cc(C(C)(C)C(=O)O)c3)c2)cc1Cl [Example 153],70

row,SMILES,IC50 [nM]
1,CCc1nc(C)c(Oc2ccnc(Nc3cccc(CCC(=O)O)c3)c2)cc1Cl [Example 154],16
2,CCc1nc(C)c(Oc2ccnc(Nc3cccc(CC(C)(C)C(=O)O)c3)c2)cc1Cl [Example 155],30
3,CCc1nc(C)c(Oc2ccnc(Nc3cc(C)cc(CC(C)(C)C(=O)O)c3)c2)cc1Cl [Example 156],23
4,Cc1cc(Nc2cc(Oc3cc(Cl)c(C)nc3C)ccn2)cc(C(C)(C)C(=O)O)c1 [Example 157],27
5,Cc1cc(CC(C)(C)C(=O)O)cc(Nc2cc(Oc3cc(Cl)c(C)nc3C)ccn2)c1 [Example 158],37
6,CC(C)(C(=O)CO)c1cccc(Nc2cc(Oc3cn(C4CC4)nc3C3CCOCC3)ccn2)c1 [Example 159],140
7,CC(C)(Cc1cccc(Nc2cc(Oc3cn(C4CC4)nc3C3CCOCC3)ccn2)c1)C(=O)O [Example 160],210
8,Cc1cc(CC(C)(C)C(=O)O)cc(Nc2cc(Oc3cn(C4CC4)nc3C3CCOCC3)ccn2)c1 [Example 162],120
9,O=C(O)Cc1cccc(Nc2cc(Oc3cn(C4CC4)nc3C3CCOCC3)ccn2)c1 [Example 163],3600
10,Cc1cc(CC(=O)O)cc(Nc2cc(Oc3cn(C4CC4)nc3C3CCOCC3)ccn2)c1 [Example 164],1110
11,Cc1cc(Nc2cc(Oc3cn(C(C)C)nc3C3CCOCC3)ccn2)cc(C(C)(C)C(=O)O)c1 [Example 167],620
12,CC(C)(Cc1cccc(Nc2cc(Oc3cn(C4CC4)nc3-c3ccccc3)ccn2)c1)C(=O)O [Example 168],210
13,Cc1cc(Nc2cc(Oc3cn(C4CC4)nc3-c3ccccc3)ccn2)cc(C(C)(C)C(=O)O)c1 [Example 169],7
14,Cc1cc(CC(C)(C)C(=O)O)cc(Nc2cc(Oc3cn(C4CC4)nc3-c3ccccc3)ccn2)c1 [Example 170],14
15,O=C(O)CCc1cccc(Nc2cc(Oc3cn(C4CC4)nc3-c3ccccc3)ccn2)c1 [Example 171],16
16,Cc1cc(Nc2cc(Oc3cn(C4CCC4)nc3-c3ccccc3)ccn2)cc(C(C)(C)C(=O)O)c1 [Example 172],120
17,O=C(O)CCc1cccc(Nc2cc(Oc3cn(C4CCC4)nc3-c3ccccc3)ccn2)c1 [Example 173],26
18,"CCc1nc(C)c(Oc2ccnc(Nc3cccc(CC4(C(=O)O)COC4)c3)c2)cc1C [Example 174, 3-(3-((4-((6-ethyl-2,5-dimethylpyridin-3-yl)oxy)pyridin-2-yl)amino)benzyl)oxetane-3-carboxylic acid]",57
19,Cc1cc(Oc2ccnc(Nc3cccc(CC(C)(C)c4nn[nH]n4)c3)c2)c(-c2ccccn2)nc1C [Example 176],150
20,COc1ccc(Nc2cc(Oc3cc(C)c(C)nc3-c3ccccn3)ccn2)cc1CCc1nn[nH]n1 [Example 177],150
21,COc1cc(CCc2nn[nH]n2)cc(Nc2cc(Oc3cc(C)c(C)nc3-c3ccccn3)ccn2)c1 [Example 178],210
22,Cc1cc(Oc2ccnc(Nc3cc(F)cc(CCc4nn[nH]n4)c3)c2)c(-c2ccccn2)nc1C [Example 179],170
23,Cc1cc(Oc2ccnc(Nc3cc(Cl)cc(CCc4nn[nH]n4)c3)c2)c(-c2ccccn2)nc1C [Example 180],79

row,SMILES,IC50 [nM]
1,CCc1cc(Oc2ccnc(Nc3cccc(CCc4nn[nH]n4)c3)c2)c(-c2ccccn2)nc1C [Example 181],210
2,Cc1nc(-c2ccccn2)c(Oc2ccnc(Nc3cccc(CCc4nn[nH]n4)c3)c2)cc1C1CC1 [Example 182],640
3,Cc1nc(-c2ccccn2)c(Oc2ccnc(Nc3cccc(CCc4nn[nH]n4)c3)c2)cc1C(C)C [Example 183],240
4,COc1ccc(Nc2cc(Oc3ccc(C)nc3-c3ccccn3)ccn2)cc1CCc1nn[nH]n1 [Example 184],330
5,CCc1nc(-c2ccccn2)c(Oc2ccnc(Nc3cccc(CCc4nn[nH]n4)c3)c2)cc1C [Example 185],39
6,CCc1nc(C)c(Oc2ccnc(Nc3cc(C)cc(CCc4nn[nH]n4)c3)c2)cc1Cl [Example 186],51
7,CCc1ccc(Oc2ccnc(Nc3cc(C)cc(CCc4nn[nH]n4)c3)c2)c(C)n1 [Example 187],27
8,Cc1cc(Oc2ccnc(Nc3cccc(CCc4nn[nH]n4)c3)c2)c(C)nc1C [Example 188],73
9,Cc1cc(CCc2nn[nH]n2)cc(Nc2cc(Oc3cc(Cl)c(C)nc3C)ccn2)c1 [Example 189],24
10,CCc1nc(C)c(Oc2ccnc(Nc3cc(C)cc(CCc4nn[nH]n4)c3)c2)cc1C [Example 190],6
11,Cc1ccc(Oc2ccnc(Nc3cccc(CCc4nn[nH]n4)c3)c2)c(C2CCOCC2)n1 [Example 191],3690
12,Cc1ccc(Oc2ccnc(Nc3cccc(CC(C)(C)c4nn[nH]n4)c3)c2)c(-c2ccccc2)n1 [Example 192],65
13,c1cc(Cc2nn[nH]n2)cc(Nc2cc(Oc3cn(C4CC4)nc3C3CCOCC3)ccn2)c1 [Example 193],> 10000
14,Cc1cc(Cc2nn[nH]n2)cc(Nc2cc(Oc3cn(C4CC4)nc3C3CCOCC3)ccn2)c1 [Example 194],4140
15,CC(C)(c1cccc(Nc2cc(Oc3cn(C4CC4)nc3C3CCOCC3)ccn2)c1)c1nn[nH]n1 [Example 195],2230
16,Cc1cc(Nc2cc(Oc3cn(C4CC4)nc3C3CCOCC3)ccn2)cc(C(C)(C)c2nn[nH]n2)c1 [Example 196],270
17,c1ccc(-c2nn(C3CC3)cc2Oc2ccnc(Nc3cccc(CCc4nn[nH]n4)c3)c2)cc1 [Example 197],35
18,c1ccc(-c2nn(C3CC3)cc2Oc2ccnc(Nc3cccc(Cc4nn[nH]n4)c3)c2)cc1 [Example 198],110
19,Cc1cc(Cc2nn[nH]n2)cc(Nc2cc(Oc3cn(C4CC4)nc3-c3ccccc3)ccn2)c1 [Example 199],60
20,c1ccc(-c2nn(C3CCC3)cc2Oc2ccnc(Nc3cccc(CCc4nn[nH]n4)c3)c2)cc1 [Example 200],86
21,c1ccc(-c2nn(C3CCC3)cc2Oc2ccnc(Nc3cccc(Cc4nn[nH]n4)c3)c2)cc1 [Example 201],89
